Measured values taken from patent US20250171437A1 (Agios Pharmaceuticals,Inc., priority 2022, published 2025).

Molecular target: T1, human PAH with the R408W mutation (A375 R408W cells) (Homo sapiens, UniProt P00439, R408W)
T1 construct: expressed in transfected cells
T1 sequence (P00439 1-452 R408W): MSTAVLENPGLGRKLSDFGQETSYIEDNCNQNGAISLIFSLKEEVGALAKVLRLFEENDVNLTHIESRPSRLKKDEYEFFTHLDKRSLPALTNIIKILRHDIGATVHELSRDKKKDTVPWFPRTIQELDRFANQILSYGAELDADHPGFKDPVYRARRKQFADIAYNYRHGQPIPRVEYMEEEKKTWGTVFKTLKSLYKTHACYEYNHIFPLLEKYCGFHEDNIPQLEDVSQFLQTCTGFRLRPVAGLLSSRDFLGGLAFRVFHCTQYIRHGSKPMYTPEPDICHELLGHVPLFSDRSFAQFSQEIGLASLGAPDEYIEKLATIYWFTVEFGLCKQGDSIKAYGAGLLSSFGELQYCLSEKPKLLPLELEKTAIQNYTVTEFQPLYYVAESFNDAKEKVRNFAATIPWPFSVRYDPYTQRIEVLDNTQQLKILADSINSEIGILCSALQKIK
Experiment: Cell Based Phenylalanine Flux Assay
Settings: A375 R408W cells; 24 hrs with compound, then 20 μM sepiapterin and 800 μM 13C9,15N-Phenylalanine for 4 hours; 13C-Tyrosine by LC-MS; average where tested multiple times
In short: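 Puromycin-selected A375 line, lentiviral hPAH R408W; cmpd 24 h, 37 °C, 5% CO2, 0.5% DMSO; then 20 μM sepiapterin + 800 μM 13C9,15N-Phe, 4 h; media extracted in 80% MeCN; 13C-Tyr by LC-MS; AC50 from 10-pt curves.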

AC50 [nM]	SMILES
500 to 1000	O=C(c1nnc(-c2ccccn2)o1)N1CCc2[nH]cnc2[C@@H]1c1nc2cccc(C(F)(F)F)c2o1 [Example 837, (R)-(5-(pyridin-2-yl)-1,3,4-oxadiazol-2-yl)(4-(7-(trifluoromethyl)benzo[d]oxazol-2-yl)-6,7-dihydro-1H-imidazo[4,5-c]pyridin-5(4H)-yl)methanone]
≤ 500	O=C(c1nnc(-c2ccccn2)o1)N1CCc2[nH]cnc2[C@H]1c1nc2cccc(C(F)(F)F)c2o1 [Example 838, (S)-(5-(pyridin-2-yl)-1,3,4-oxadiazol-2-yl)(4-(7-(trifluoromethyl)benzo[d]oxazol-2-yl)-6,7-dihydro-1H-imidazo[4,5-c]pyridin-5(4H)-yl)methanone]
500 to 1000	O=C(c1nnc(-c2ncccc2F)o1)N1CCc2[nH]cnc2[C@@H]1c1nc2cccc(C(F)(F)F)c2o1 [Example 839, (R)-(5-(3-fluoropyridin-2-yl)-1,3,4-oxadiazol-2-yl)(4-(7-(trifluoromethyl)benzo[d]oxazol-2-yl)-6,7-dihydro-1H-imidazo[4,5-c]pyridin-5(4H)-yl)methanone]
≤ 500	O=C(c1nnc(-c2ncccc2F)o1)N1CCc2[nH]cnc2[C@H]1c1nc2cccc(C(F)(F)F)c2o1 [Example 840, (S)-(5-(3-fluoropyridin-2-yl)-1,3,4-oxadiazol-2-yl)(4-(7-(trifluoromethyl)benzo[d]oxazol-2-yl)-6,7-dihydro-1H-imidazo[4,5-c]pyridin-5(4H)-yl)methanone]
500 to 1000	O=C(c1nnc(-c2ccn(C(F)F)n2)o1)N1CCc2[nH]cnc2[C@@H]1c1nc2cccc(C(F)(F)F)c2o1 [Example 853, (R)-(5-(1-(difluoromethyl)-1H-pyrazol-3-yl)-1,3,4-oxadiazol-2-yl)(4-(7-(trifluoromethyl)benzo[d]oxazol-2-yl)-6,7-dihydro-1H-imidazo[4,5-c]pyridin-5(4H)-yl)methanone]
≤ 500	O=C(c1nnc(-c2ccn(C(F)F)n2)o1)N1CCc2[nH]cnc2[C@H]1c1nc2cccc(C(F)(F)F)c2o1 [Example 854, (S)-(5-(1-(difluoromethyl)-1H-pyrazol-3-yl)-1,3,4-oxadiazol-2-yl)(4-(7-(trifluoromethyl)benzo[d]oxazol-2-yl)-6,7-dihydro-1H-imidazo[4,5-c]pyridin-5(4H)-yl)methanone]
1000 to 5000	Cc1cccc2nc([C@H]3c4nc[nH]c4CCN3C(=O)c3nnc(-c4ncccc4F)o3)oc12 [Example 857, (R)-(5-(3-fluoropyridin-2-yl)-1,3,4-oxadiazol-2-yl)(4-(7-methylbenzo[d]oxazol-2-yl)-6,7-dihydro-1H-imidazo[4,5-c]pyridin-5(4H)-yl)methanone]
≤ 500	Cc1cccc2nc([C@@H]3c4nc[nH]c4CCN3C(=O)c3nnc(-c4ncccc4F)o3)oc12 [Example 858, (S)-(5-(3-fluoropyridin-2-yl)-1,3,4-oxadiazol-2-yl)(4-(7-methylbenzo[d]oxazol-2-yl)-6,7-dihydro-1H-imidazo[4,5-c]pyridin-5(4H)-yl)methanone]

The next lines start with the compound.

SMILES	AC50 [nM]
O=C(c1nnc(-c2ncccc2F)o1)N1CCc2[nH]cnc2[C@@H]1c1nc2ccccc2o1 [Example 834, (R)-(4-(benzo[d]oxazol-2-yl)-6,7-dihydro-1H-imidazo[4,5-c]pyridin-5(4H)-yl)(5-(3-fluoropyridin-2-yl)-1,3,4-oxadiazol-2-yl)methanone]	500 to 1000
O=C(c1ccnn1CC(F)F)N1CCc2[nH]cnc2[C@H]1c1nc2ccccc2o1 [Example 835, (S)-(4-(benzo[d]oxazol-2-yl)-6,7-dihydro-1H-imidazo[4,5-c]pyridin-5(4H)-yl)(1-(2,2-difluoroethyl)-1H-pyrazol-5-yl)methanone]	≤ 500
O=C(c1ccnn1CC(F)F)N1CCc2[nH]cnc2[C@@H]1c1nc2ccccc2o1 [Example 836, (R)-(4-(benzo[d]oxazol-2-yl)-6,7-dihydro-1H-imidazo[4,5-c]pyridin-5(4H)-yl)(1-(2,2-difluoroethyl)-1H-pyrazol-5-yl)methanone]	500 to 1000
O=C(c1nnc(-c2cnn(C(F)F)c2)o1)N1CCc2[nH]cnc2[C@H]1c1nc2ccccc2o1 [Example 841, (S)-(4-(benzo[d]oxazol-2-yl)-6,7-dihydro-1H-imidazo[4,5-c]pyridin-5(4H)-yl)(5-(1-(difluoromethyl)-1H-pyrazol-4-yl)-1,3,4-oxadiazol-2-yl)methanone]	≤ 500
O=C(c1nnc(-c2cnn(C(F)F)c2)o1)N1CCc2[nH]cnc2[C@@H]1c1nc2ccccc2o1 [Example 842, (R)-(4-(benzo[d]oxazol-2-yl)-6,7-dihydro-1H-imidazo[4,5-c]pyridin-5(4H)-yl)(5-(1-(difluoromethyl)-1H-pyrazol-4-yl)-1,3,4-oxadiazol-2-yl)methanone]	1000 to 5000
Cn1ccc(-c2nnc(C(=O)N3CCc4[nH]cnc4[C@H]3c3nc4ccccc4o3)o2)n1 [Example 843, (S)-(4-(benzo[d]oxazol-2-yl)-6,7-dihydro-1H-imidazo[4,5-c]pyridin-5(4H)-yl)(5-(1-methyl-1H-pyrazol-3-yl)-1,3,4-oxadiazol-2-yl)methanone]	≤ 500
Cn1ccc(-c2nnc(C(=O)N3CCc4[nH]cnc4[C@@H]3c3nc4ccccc4o3)o2)n1 [Example 844, (R)-(4-(benzo[d]oxazol-2-yl)-6,7-dihydro-1H-imidazo[4,5-c]pyridin-5(4H)-yl)(5-(1-methyl-1H-pyrazol-3-yl)-1,3,4-oxadiazol-2-yl)methanone]	500 to 1000
O=C(c1nnc(-c2ccn(C(F)F)n2)o1)N1CCc2[nH]cnc2[C@@H]1c1nc2ccccc2o1 [Example 845, (R)-(4-(benzo[d]oxazol-2-yl)-6,7-dihydro-1H-imidazo[4,5-c]pyridin-5(4H)-yl)(5-(1-(difluoromethyl)-1H-pyrazol-3-yl)-1,3,4-oxadiazol-2-yl)methanone]	1000 to 5000
O=C(c1nnc(-c2ccn(C(F)F)n2)o1)N1CCc2[nH]cnc2[C@H]1c1nc2ccccc2o1 [Example 846, (S)-(4-(benzo[d]oxazol-2-yl)-6,7-dihydro-1H-imidazo[4,5-c]pyridin-5(4H)-yl)(5-(1-(difluoromethyl)-1H-pyrazol-3-yl)-1,3,4-oxadiazol-2-yl)methanone]	≤ 500
O=C(c1ccnn1CC(F)F)N1CCc2[nH]cnc2[C@H]1c1nc2cccc(F)c2o1 [Example 847, (S)-(1-(2,2-difluoroethyl)-1H-pyrazol-5-yl)(4-(7-fluorobenzo[d]oxazol-2-yl)-6,7-dihydro-1H-imidazo[4,5-c]pyridin-5(4H)-yl)methanone]	≤ 500
O=C(c1ccnn1CC(F)F)N1CCc2[nH]cnc2[C@@H]1c1nc2cccc(F)c2o1 [Example 848, (R)-(1-(2,2-difluoroethyl)-1H-pyrazol-5-yl)(4-(7-fluorobenzo[d]oxazol-2-yl)-6,7-dihydro-1H-imidazo[4,5-c]pyridin-5(4H)-yl)methanone]	500 to 1000
O=C(c1ccnn1CC(F)F)N1CCc2[nH]cnc2[C@@H]1c1nc2c(F)cccc2o1 [Example 849, (R)-(1-(2,2-difluoroethyl)-1H-pyrazol-5-yl)(4-(4-fluorobenzo[d]oxazol-2-yl)-6,7-dihydro-1H-imidazo[4,5-c]pyridin-5(4H)-yl)methanone]	≤ 500
O=C(c1ccnn1CC(F)F)N1CCc2[nH]cnc2[C@H]1c1nc2c(F)cccc2o1 [Example 850, (S)-(1-(2,2-difluoroethyl)-1H-pyrazol-5-yl)(4-(4-fluorobenzo[d]oxazol-2-yl)-6,7-dihydro-1H-imidazo[4,5-c]pyridin-5(4H)-yl)methanone]	1000 to 5000
CC(C)(C)c1nnc(C(=O)N2CCc3[nH]cnc3[C@@H]2c2nc3c(F)ccc(F)c3o2)o1 [Example 851, (R)-(5-(tert-butyl)-1,3,4-oxadiazol-2-yl)(4-(4,7-difluorobenzo[d]oxazol-2-yl)-6,7-dihydro-1H-imidazo[4,5-c]pyridin-5(4H)-yl)methanone]	500 to 1000
CC(C)(C)c1nnc(C(=O)N2CCc3[nH]cnc3[C@H]2c2nc3c(F)ccc(F)c3o2)o1 [Example 852, (S)-(5-(tert-butyl)-1,3,4-oxadiazol-2-yl)(4-(4,7-difluorobenzo[d]oxazol-2-yl)-6,7-dihydro-1H-imidazo[4,5-c]pyridin-5(4H)-yl)methanone]	≤ 500
O=C(c1nnc(C2CC2)o1)N1CCc2[nH]cnc2[C@H]1c1nc2c(F)ccc(F)c2o1 [Example 855, (S)-(5-cyclopropyl-1,3,4-oxadiazol-2-yl)(4-(4,7-difluorobenzo[d]oxazol-2-yl)-6,7-dihydro-1H-imidazo[4,5-c]pyridin-5(4H)-yl)methanone]	≤ 500
O=C(c1nnc(C2CC2)o1)N1CCc2[nH]cnc2[C@@H]1c1nc2c(F)ccc(F)c2o1 [Example 856, (R)-(5-cyclopropyl-1,3,4-oxadiazol-2-yl)(4-(4,7-difluorobenzo[d]oxazol-2-yl)-6,7-dihydro-1H-imidazo[4,5-c]pyridin-5(4H)-yl)methanone]	500 to 1000
Cc1cccc2nc([C@H]3c4nc[nH]c4CCN3C(=O)c3nnc(-c4ccn(C(F)F)n4)o3)oc12 [Example 859, (R)-(5-(1-(difluoromethyl)-1H-pyrazol-3-yl)-1,3,4-oxadiazol-2-yl)(4-(7-methylbenzo[d]oxazol-2-yl)-6,7-dihydro-1H-imidazo[4,5-c]pyridin-5(4H)-yl)methanone]	1000 to 5000
